Patent publication US20230173086A1, “PEPTIDE CONJUGATES AND THERAPEUTIC AGENTS HAVING IMPROVED PHARMACOLOGICAL AND PHARMACOKINETIC PROPERTIES” (Resolute Bio, Inc., priority 2021, published 2023)
Like-named read-outs stand apart in the source and are kept apart here.

System: RBCs
Experimental: RBC binding ranked by MESF (molecules of equivalent soluble fluorescence), or intensity of fluorescent signal measured when RBCs were incubated with a given concentration of peptide.
High=MESF value>1000 fluorescent units
Medium=MESF Value from 300 to 1000 fluorescent units
Low=MESF Value from 15 to 300 fluorescent units

[1] = Table 3, structurally-diverse all-D-peptides

Substance | Classification of RBC binding properties (MESF) (Table 2, 1a analogs) | Classification of RBC binding properties (MESF) (Table 1, D-Ala scanning of 1a) | Classification of RBC binding properties (MESF) [1]
Ac-phe-trp-his-pro-trp-ala-met-met-tyr-lys-Gly-Gly-Gly-lys(Biotin)-NH2 [Peptide 2g] | Does Not Bind (MESF Value below 15 fluorescent units) |  | 
H-ala-pro-met-phe-tyr-trp-lys-his-met-trp-Gly-Gly-Gly-lys(Biotin)-NH2 [Peptide 2f] | Low (MESF Value from 15 to 300 fluorescent units) |  | 
H-ala-trp-his-pro-trp-ala-met-met-tyr-lys-Gly-Gly-Gly-lys(Biotin)-NH2 [Peptide 1b] |  | Low (MESF Value from 15 to 300 fluorescent units) | 
H-leu-his-his-pro-trp-pro-tyr-phe-tyr-lys-Gly-Gly-Gly-lys(Biotin)-NH2 [Peptide 3e] |  |  | Low (MESF Value from 15 to 300 fluorescent units)
H-leu-phe-his-pro-trp-pro-ala-phe-pro-lys-Gly-Gly-Gly-lys(Biotin)-NH2 [Peptide 3l] |  |  | High (MESF value>1000 fluorescent units)
H-leu-trp-his-pro-trp-ala-met-pro-glu-lys-Gly-Gly-Gly-lys(Biotin)-NH2 [Peptide 3m] |  |  | Low (MESF Value from 15 to 300 fluorescent units)
H-leu-trp-his-pro-tyr-leu-phe-leu-trp-lys-Gly-Gly-Gly-lys(Biotin)-NH2 [Peptide 3f] |  |  | Does Not Bind (MESF Value below 15 fluorescent units)
H-leu-trp-ser-pro-val-phe-phe-phe-pro-lys-Gly-Gly-Gly-lys(Biotin)-NH2 [Peptide 3n] |  |  | Does Not Bind (MESF Value below 15 fluorescent units)
H-met-phe-his-pro-phe-ala-phe-met-tyr-lys-Gly-Gly-Gly-lys(Biotin)-NH2 [Peptide 3o] |  |  | Medium (MESF Value from 300 to 1000 fluorescent units)
H-phe-ala-his-pro-trp-ala-met-met-tyr-lys-Gly-Gly-Gly-lys(Biotin)-NH2 [Peptide 1c] |  | Does Not Bind (MESF Value below 15 fluorescent units) | 
H-phe-phe-his-pro-phe-ala-trp-phe-his-lys-Gly-Gly-Gly-lys(Biotin)-NH2 [Peptide 3h] |  |  | Low (MESF Value from 15 to 300 fluorescent units)
H-phe-phe-his-pro-trp-ser-trp-thr-ser-lys-Gly-Gly-Gly-lys(Biotin)-NH2 [Peptide 3a] |  |  | High (MESF value>1000 fluorescent units)
H-phe-phe-his-pro-tyr-Gly-leu-phe-val-lys-Gly-Gly-Gly-lys(Biotin)-NH2 [Peptide 3b] |  |  | Medium (MESF Value from 300 to 1000 fluorescent units)
H-phe-phe-his-val-pro-val-phe-ser-val-lys-Gly-Gly-Gly-lys(Biotin)-NH2 [Peptide 3i] |  |  | Medium (MESF Value from 300 to 1000 fluorescent units)
H-phe-trp-ala-pro-trp-ala-met-met-tyr-lys-Gly-Gly-Gly-lys(Biotin)-NH2 [Peptide 1d] |  | Medium (MESF Value from 300 to 1000 fluorescent units) | 
H-phe-trp-his-L-Pro-trp-ala-met-met-tyr-lys-Gly-Gly-Gly-lys(Biotin)-NH2 [Peptide 2l] | Low (MESF Value from 15 to 300 fluorescent units) |  | 

Substance | Classification of RBC binding properties (MESF) (Table 2, 1a analogs) | Classification of RBC binding properties (MESF) (Table 1, D-Ala scanning of 1a) | Classification of RBC binding properties (MESF) [1]
H-phe-trp-his-NMeGly-trp-ala-met-met-tyr-lys-Gly-Gly-Gly-lys(Biotin)-NH2 [Peptide 2k] | Low (MESF Value from 15 to 300 fluorescent units) |  | 
H-phe-trp-his-ala-trp-ala-met-met-tyr-lys-Gly-Gly-Gly-lys(Biotin)-NH2 [Peptide 1e] |  | High (MESF value>1000 fluorescent units) | 
H-phe-trp-his-pro-ala-ala-met-met-tyr-lys-Gly-Gly-Gly-lys(Biotin)-NH2 [Peptide 1f] |  | Does Not Bind (MESF Value below 15 fluorescent units) | 
H-phe-trp-his-pro-trp-ala-ala-ala-tyr-lys-Gly-Gly-Gly-lys(Biotin)-NH2 [Peptide 2b] | High (MESF value>1000 fluorescent units) |  | 
H-phe-trp-his-pro-trp-ala-ala-met-tyr-lys-Gly-Gly-Gly-lys(Biotin)-NH2 [ig] |  | Does Not Bind (MESF Value below 15 fluorescent units) | 
H-phe-trp-his-pro-trp-ala-leu-leu-tyr-lys-Gly-Gly-Gly-lys(Biotin)-NH2 [Peptide 2c] | Does Not Bind (MESF Value below 15 fluorescent units) |  | 
H-phe-trp-his-pro-trp-ala-met-ala-tyr-lys-Gly-Gly-Gly-lys(Biotin)-NH2 [Peptide 1h] |  | Low (MESF Value from 15 to 300 fluorescent units) | 
H-phe-trp-his-pro-trp-ala-met-met-ala-lys-Gly-Gly-Gly-lys(Biotin)-NH2 [Peptide 1i] |  | Low (MESF Value from 15 to 300 fluorescent units) | 
H-phe-trp-his-pro-trp-ala-met-met-tyr-ala-Gly-Gly-Gly-lys(Biotin)-NH2 [Peptide 1j] |  | High (MESF value>1000 fluorescent units) | 
H-phe-trp-his-pro-trp-ala-met-met-tyr-lys-Gly-Gly-Gly-(H-phe-trp-his-pro-trp-ala-met-met-tyr-lys-Gly-Gly-Gly)-lys-Gly-Gly-lys(Biotin)-NH2 [Peptide 2d] | High (MESF value>1000 fluorescent units) |  | 
H-phe-trp-his-pro-trp-ala-met-met-tyr-lys-Gly-Gly-Gly-cys(trt)-Gly-lys(Biotin)-NH2 [Peptide 2h] | Does Not Bind (MESF Value below 15 fluorescent units) |  | 
H-phe-trp-his-pro-trp-ala-met-met-tyr-lys-Gly-Gly-Gly-lys(Biotin)-NH2 [Peptide 1a] | High (MESF value>1000 fluorescent units) | High (MESF value>1000 fluorescent units) | High (MESF value>1000 fluorescent units)
H-phe-trp-his-pro-trp-ala-met-met-tyr-lys-Gly-Gly-Gly-lys(C18diacid)-lys(Biotin)-NH2 [Peptide 2e] | Medium (MESF Value from 300 to 1000 fluorescent units) |  | 
H-phe-trp-his-pro-trp-ala-nle-nle-tyr-lys-Gly-Gly-Gly-lys(Biotin)-NH2 [Peptide 2a] | Medium (MESF Value from 300 to 1000 fluorescent units) |  | 
H-phe-trp-his-pro-trp-phe-phe-lys-thr-lys-Gly-Gly-Gly-lys(Biotin)-NH2 [Peptide 3c] |  |  | Low (MESF Value from 15 to 300 fluorescent units)
H-phe-trp-his-αMepro-trp-ala-met-met-tyr-lys-Gly-Gly-Gly-lys(Biotin)-NH2 [Peptide 2m] | Does Not Bind (MESF Value below 15 fluorescent units) |  | 
